Measurements from US6555733B2, “Genes coding for amino acid deacetylases with specificity for N-acetyl-L-phosphinothricin, their isolation and use” (priority 1996, dated 2003).

Tests used:
[1] = tested on: leaves of tobacco plants (35S promoter-deac1 transformants, nontransgenic controls); assay: Drop experiment on leaves of pPCVKDEAC1 tobacco plants and nontransgenic control plants; type: in vivo, Nicotiana tabacum; design: key to Drop experiment, leaf symptoms: +++: severe necrosis; ++: marked damage; +: slight lightening; −: no symptoms
From the text: The deac1 structural gene was recloned as a 1.4 kb BamHI/SalI PCT fragment into the binary vector pPCV801 (Koncz and Schell, 1986, Mol. Gen. Genet. 204: 383-396) under control of the 35S promoter. The resulting plasmid pPCVKDEAC1 (FIG. 2) with the expression vector 35S promoter-deac1-structural gene-35S terminator was transformed in Agrobacterium tumefaciens (strain ATHV) using standard methods. Pieces of tobacco leaf (Nicotiana tabacum) were transformed with the recombinant Agrobacteria according to the method of Horsch et al., 1985, Science 227: 1229-1231 and selected on kanamycin medium, 18 independent tobacco transformants were regenerated and tested for expression of the deacetylase in the leaves. In the case of activity of the protein in the transgenic plants, a sensitivity of the leaves to N-acetyl-PPT was to be expected, because the substance in the plant is then converted into the herbicidal active compound phosphinothricin on account of the enzymatic activity of the deacetylase.
In a drop experiment, the leaves of the transgenic plants and of a number of nontransgenic control plants were treated with 5 μl each of the following concentrations of N-acetyl-D,L-PPT: 4 mg/ml(=15 mM), 1 mg/ml(=3.75 mM), 0.4 mg/ml(=1.5 mM), 0.1 mg/ml(=0.38 mM). The treatment sites were examined for lightening or necrosis formation after 1-2 weeks. Simultaneously, the N-acetyl-PPT-specific deacetylase activity of the transformants, and also of the control plants, was measured in crude extracts. To do this, 100 mg each of leaf material were homogenized in 200 μl of PBS buffer, the cell debris was centrifuged off and the protein-containing supernatants were dialyzed overnight at 4° C. against the same buffer. 10 μl each of these samples were incubated with 0.1 mM [^14C]-N-acetyl-L-PPT overnight at 37° C. The batches were then analyzed in the HPLC, as described above, for formation of [^14C]-L-PPT.

[2] = tested on: flower buds of tobacco plants (tap1 promoter-deac1 transformants, NT Sam NN controls); assay: Flower bud treatment, induced male sterility in pPCVTDEAC1 tobacco plants; type: in vivo, Nicotiana tabacum
From the text: Using standard methods, the tapetum-specific promoter of the tap1 gene from snapdragon (Antirrhinum majus) was fused in the vector pUC18 as a 2.2 kb EcoRI/BamHI fragment with the deac1 structural gene (1.4 kb BamHI/SalI-PCR fragment) and the 35S terminator. The expression cassette tap1 promoter-deac structural gene-35S terminator thus resulting was cloned into the binary vector pPCV801 as a 3.8 kb EcoRI fragment instead of the 35S promoter/terminator region (plasmid pPCVTDEAC1, FIG. 3). The transformation of tobacco was carried out as described in Example 4.
In the case of tapetum-specific expression of the deacetylase, it should be possible by treatment of the flower buds with N-acetyl-PPT to induce male-sterile flowers. The conversion of the PPT derivative into the herbicidal active compound phosphinothricin leads to selective damage to the tapetum tissue, by means of which the development of functional pollen is prevented.
In each case only one side of the inflorescences (the total area of the developing flower buds) was treated with N-acetyl-PPT, the other side of the influorescences remained untreated in order to ensure that the phenomena to be observed are not to be attributed to deformities of the respective plants. The treatment was carried out at a time at which the individual buds were not larger than 5 mm (active phase for tapetum promoter). The tobacco transformants and also a number of NT Sam NN control plants were treated 3× with 0.2% N-acetyl-D,L-PPT(=7.5 mM)/0.1% Genapol (wetting agent) within one week. After the blooming of the buds (about 9-11 days after conclusion of the treatment), the plants were investigated for the occurrence of male-sterile flowers.

[3] = tested on: N-acetyl-PPT deacetylase (Deac1 protein); assay: Radioactive test of purified N-acetyl-PPT deacetylase (Deac1) with [14C]-N-acetyl-L-PPT, HPLC; type: biochemical, Stenotrophomonas sp.; details: for Km: substrate [14C]-N-acetyl-L-PPT 0.01-1 mM, pH=8.0, 1 mM CoCl2, 3-fold determinations; for Spec. activity: substrate [14C]-N-acetyl-L-PPT
[4] = tested on: N-acetyl-PPT deacetylase (Deac1 protein); assay: Nonradioactive test, substrate specificity of purified deacetylase (amino acid analyzer); type: biochemical, Stenotrophomonas sp.; details: 25 mM substrate; for Rel. activity: 60 min, 28 °C, 5 μg enzyme, hippuric acid set equal to 100%
Protocol: (2) Nonradioactive test: To investigate the substrate specificity, 5 μg each of purified enzyme were incubated for 60 min. at 28° C. in 20 μl batches in PBS buffer with, in each case, 25 mM of a certain N-acetyl- or N-acylamino acid. The samples were then measured in an amino acid analyzer (Biotronic LC 5001) for formation of the free amino acids. The specific activities were determined in [nmol of amino acid/min/mg of protein]. For the N-acetyl-PPT deacetylase, a pH optimum of pH=8 (see Tab. 1) and a temperature optimum of 37° C. (see Tab. 2) were determined. […] By addition of 1 mM CoCl2, the enzyme activity could be increased by about 20%.

deac2 gene product = assay: Conversion of N-acetylated amino acids by permeabilized E. coli XLI blue cells with pGK81; type: cell-based, Comamonas acidovorans; details: 25 mM, 3 hours at 30 °C
Protocol: To investigate the substrate specificity of the deac2 gene product from Comamonas acidovorans, cells of E. coli strain XLI blue permeabilized by toluene/ethanol treatment were used with and without the vector pGK81. The induction of the deac2 gene repressed by the Lac^i repressor present in this strain could be achieved by IPTG treatment. The permeabilized cells were incubated for 3 hours at 30° C. with various N-acetylated amino acids (final concentration 25 mM) and the supernatants were investigated with the aid of an amino acid analyzer. It turned out here that more than 20% of the N-acetylornithine made available was converted. For N-acetyl-phosphinothricin too, an increasing deacetylation to phosphinothricin, analogous to the concentration of N-acetylphosphinothricin employed, could be found (Table 7).
The concentrations of the N-acetylated amino acids employed and the amino acids formed by deacetylation are indicated.

Molecule: CC(=O)NC(CCP(C)(=O)O)C(=O)O (racemic) [N-acetyl-D,L-PPT, N-acetylphosphinothricin]
- Drop experiment, leaf symptoms ([1]; Control plant, 0.1 mg/ml): −
- Drop experiment, leaf symptoms ([1]; Control plant, 0.4 mg/ml): −
- Drop experiment, leaf symptoms ([1]; Control plant, 1 mg/ml): −
- Drop experiment, leaf symptoms ([1]; Control plant, 4 mg/ml, 5 μl, after 1-2 weeks): −
- concentration to which leaves still react sensitively ([1]; constitutive expression of the deac gene, greenhouse plants (=0.2 mg/ml of L-enantiomer)): 0.4 mg/mL
- Drop experiment, leaf symptoms ([1]; plant pPCVK9, 0.1 mg/ml): −
- Drop experiment, leaf symptoms ([1]; plant pPCVK9, 0.4 mg/ml): −
- Drop experiment, leaf symptoms ([1]; plant pPCVK9, 1 mg/ml): +
- Drop experiment, leaf symptoms ([1]; plant pPCVK9, 4 mg/ml): +++
- Drop experiment, leaf symptoms ([1]; plant pPCVK14, 0.1 mg/ml): −
- Drop experiment, leaf symptoms ([1]; plant pPCVK14, 0.4 mg/ml): −
- Drop experiment, leaf symptoms ([1]; plant pPCVK14, 1 mg/ml): +
- Drop experiment, leaf symptoms ([1]; plant pPCVK14, 4 mg/ml): +
- Drop experiment, leaf symptoms ([1]; plant pPCVK15, 0.1 mg/ml): −
- Drop experiment, leaf symptoms ([1]; plant pPCVK15, 0.4 mg/ml): +
- Drop experiment, leaf symptoms ([1]; plant pPCVK15, 1 mg/ml): +
- Drop experiment, leaf symptoms ([1]; plant pPCVK15, 4 mg/ml): ++
- Drop experiment, leaf symptoms ([1]; plant pPCVK16, 0.1 mg/ml): −
- Drop experiment, leaf symptoms ([1]; plant pPCVK16, 0.4 mg/ml): −
- Drop experiment, leaf symptoms ([1]; plant pPCVK16, 1 mg/ml): +
- Drop experiment, leaf symptoms ([1]; plant pPCVK16, 4 mg/ml): +
- Drop experiment, leaf symptoms ([1]; plant pPCVK17, 0.1 mg/ml): −
- Drop experiment, leaf symptoms ([1]; plant pPCVK17, 0.4 mg/ml): −
- Drop experiment, leaf symptoms ([1]; plant pPCVK17, 1 mg/ml): +
- Drop experiment, leaf symptoms ([1]; plant pPCVK17, 4 mg/ml): +
- Number of sterile or pollen-reduced flowers, treated ([2]; Control plant, 3x 0.2% N-acetyl-D,L-PPT/0.1% Genapol within one week): 0
- Number of sterile or pollen-reduced flowers, treated ([2]; plant pPCT16): 10
- Number of sterile or pollen-reduced flowers, treated ([2]; plant pPCVT14): 18
- Number of sterile or pollen-reduced flowers, treated ([2]; plant pPCVT15): 0
- induction of male-sterile flowers (in words) ([2]; tapetum-specific expression, buds treated with 2 mg/ml (=1 mg/ml of L-enantiomer), greenhouse plants): induction of male-sterile flowers was achieved

Molecule: [Cl-].[Cl-].[Co+2] [CoCl2]
- increase of enzyme activity [3]: about 20%

Molecule: O=C(O)CNC(=O)c1ccccc1 [Hippuric acid, N-benzoylglycine]
- conversion by the deacetylase (in words) [4]: highest conversions
- Rel. activity [4]: 100%

Molecule: CC(=O)N[C@@H](CCC(=O)O)C(=O)O [N-Ac-glutamic acid, N-acetyl-L-glutamate]
- conversion by the deacetylase (in words) [4]: highest conversions
- Rel. activity [4]: 100%

Molecule: CC(=O)N[C@@H](CCC(N)=O)C(=O)O [N-Ac-glutamine]
- Rel. activity [4]: 30%

Molecule: CC(=O)NCC(=O)O [N-Ac-glycine]
- Rel. activity [4]: 59%

Molecule: CC(=O)N[C@@H](Cc1cnc[nH]1)C(=O)O [N-Ac-histidine]
- Rel. activity [4]: 43%

Molecule: CC(=O)N[C@@H](CC(C)C)C(=O)O [N-Ac-leucine]
- Rel. activity [4]: 33%

Molecule: CSCCC(NC(C)=O)C(=O)O (stereo not shown) [N-Ac-methionine]
- Rel. activity [4]: 0%

Molecule: CC(=O)N[C@@H](CCCN)C(=O)O [N-Ac-ornithine]
- Rel. activity [4]: 37%

Molecule: CC(=O)NC(Cc1ccccc1)C(=O)O (stereo not shown) [N-Ac-phenylalanine]
- Rel. activity [4]: 24%

Molecule: CC(=O)N1CCCC1C(=O)O (stereo not shown) [N-Ac-proline]
- Rel. activity [4]: 0%

Molecule: CC(=O)NC(CO)C(=O)O (stereo not shown) [N-Ac-serine]
- Rel. activity [4]: 4%

Molecule: CC(=O)NC(Cc1c[nH]c2ccccc12)C(=O)O (stereo not shown) [N-Ac-tryptophan]
- Rel. activity [4]: 0.4%

Molecule: CC(=O)N[C@@H](Cc1ccc(O)cc1)C(=O)O [N-Ac-tyrosine]
- Rel. activity [4]: 11%

Molecule: CC(=O)N[C@H](C(=O)O)C(C)C [N-Ac-valine]
- Rel. activity [4]: 2%

Molecule: CC(=O)N[C@@H](CCP(C)(=O)O)C(=O)O [N-acetyl-L-PPT, N-acetyl-L-phosphinothricin]
- Km [3]: 670 µM
- affinity below that for hippuric acid and N-acetyl-L-glutamate [4]: approximately 50%
- Rel. activity [4]: 43%

Molecule: CC(=O)N[C@@H](CCCN)C(=O)O [N-acetyl-ornithine, N-acetylornithine]
- share of substrate made available that was converted (deac2 gene product): more than 20%

B1: N-acetyl-PPT deacetylase: deacetylase from Stenotrophomonas sp., 454 amino acids (SEQ ID NO:2), purified from E. coli as GST fusion cleavage product (protein)
chain: MIRKTVLLTALSCALASATATAAEGQRPEVEAAAARLQRQVVEWRRDFHQHPELSNREVRTAAKVAERLRAMGLQPQTGVAVHGVVAIIKGALPGPKIALRADMDALPVTEQTGLPFASTATAEYRGEKVGVMHACGHDAHTATLLGVADALVAMRDTLPGEVMLIFQPAEEGAPPPEQGGAELMLKEGLFKEFKPEAVFGLHVFSSVQAGQIAVRGGPLMAASDRFAITVNGRQTHGSAPWNGIDPIVAASDLIGTAQTIVSRRANLSKQPAVLTFGAIKGGIRYNIIPDSVEMVGTIRTFDPDMRKQIFADLRNVAEHTAAAHGATATTDIYEKDGNPATVNDPALTARMLPSLQAVVGKDNVYEPPLQMGSEDFSLYAQQVPAMFFFVGSTGAGIDPATAPSNHSPKFLLDEKALDVGLRALLQVSLDYLHGGKAG
modifications: Stenotrophomonas sp
- Spec. activity ([3]; 28 °C): 9.6 nmol/min/mg of protein
- Spec. activity ([3]; 37 °C): 16.8 nmol/min/mg of protein
- Spec. activity ([3]; 50 °C): 14.9 nmol/min/mg of protein
- Spec. activity ([3]; 60 °C): 4.3 nmol/min/mg of protein
- Spec. activity ([3]; pH 6): 2.4 mol/min/mg of protein
- Spec. activity ([3]; pH 8): 12.0 mol/min/mg of protein
- Km [3]: 670 µM
